Source: patent US20020048549A1, “Radioactive transition metal nitride heterocomplex” (priority 1996, published 2002)
Where two headings read alike, the source gives them in different places.

Experiments:
[1] = Stability of the complex / its solution after preparation; type: physicochemical; conditions: reaction solution after preparation
Experimental: In a mixture of 0.6 ml of ethanol and […] ( 1 mol/l) of an aqueous HCl solution were dissolved 5 mg of SDH and 1.5 mg of PNP, followed by adding thereto a physiologically acceptable ^99mTcO4^− solution ( 0.5 ml, 50 MBq). The resulting mixture was heated at 80° C. for 20 minutes and then cooled to 40° C., after which 0.25 ml of HCO3^−/CO3^2− buffer was added thereto to adjust the pH at about 8.0. Subsequently, a solution of 0.5 mg of βglu in 1.5 ml of water was added. The complex finally obtained was analyzed by […] and HPLC. […] The radiochemical purity of the final complex was higher than 95%. […]
In a mixture of 0.6 ml of ethanol and […] ( 1 mol/l) of an aqueous HCl solution were dissolved 5 mg of SDH and 1.5 mg of PNP, followed by adding thereto a physiologically acceptable ^99mTcO4 solution ( 0.5 ml, 50 MBq). […] The complex finally obtained was analyzed by HTLC and HPLC. […]
In a mixture of 0.6 ml of ethanol and 0.1 mg (1 mol/l) of an aqueous HCl solution were dissolved 5 mg of SDH and 1.5 mg of PNP, followed by adding thereto a physiologically acceptable ^99mTcO4^− solution (0.5 ml, 50 MBq). […] The complex finally obtained was analyzed by HTLC and HPLC. […]

[2] = Biodistribution of 99mTc(N)(X)(DTC)+ heterocomplexes in rats; type: in vivo, male Spraque-Dawley rats (SD rats)
Experimental: The biodistribution of a ^99mTc nitride heterocomplex represented by the general formula ^99mTc(N)(X)(Y) was investigated as follows: ^99mTc nitride heterocomplexes were synthesized using DTC as a bidentate ligand Y and each of the diphosphine compounds X described below, and the biodistribution in rats of each heterocomplex was investigated.
Before being injected into rats, the contents of the vial were diluted with phosphate buffer (0.1 mol/dm^3, pH=7.06) containing 10% Tween 80 ([…]). The complexes were stable in the solutions and in human plasma for at least 6 hours.
The biodistribution was measured using male Spraque-Dawley rats (SD rats) weighing 200 to 250 g. After 24 hours fasting, the rats were put under intraperitoneal anesthesia and given an injection in the jugular vein. Then, the organs were excised from the rats at different intervals of time, washed and then weighed. In addition, blood samples were collected and then weighed. The data on the biodistribution are expressed as the mean±significant difference of the percentage of radioactivity level per gram of the organ weight based on the dose of radioactivity, (% dose/g). The measurement was carried out using groups of 5 rats each.

SMILES: CCN1CC[PH](c2ccccc2)(c2ccccc2)[99Tc]2(#[N])([O]C(=O)c3ccccc3[S]2)[PH](c2ccccc2)(c2ccccc2)CC1 [Example 3]
- stability of the complex / solution of the complex [1]: stable

SMILES: CCON(CC)C1=[S+][99Tc]2(#[N])([S]1)[PH](c1ccccc1)(c1ccccc1)CCN(CC)CC[PH]2(c1ccccc1)c1ccccc1 [Example 4]
- stability of the complex / solution of the complex [1]: stable

SMILES: CSC1=[S+][99Tc-2]2(#[N])([NH]N1C)[P+](c1ccccc1)(c1ccccc1)CCOCC[P+]2(c1ccccc1)c1ccccc1 [^99mTc(N)(POP)(DTC)^+]
- Bone % dose/g [2]: 0.225 ± 0.01 % dose/g
- Heart % dose/g [2]: 0.923 ± 0.04 % dose/g
- Liver % dose/g [2]: 3.662 ± 0.43 % dose/g
- Spleen % dose/g [2]: 2.202 ± 0.07 % dose/g
- Blood % dose/g ([2]; 0 min after injection): 2.617 ± 0.04 % dose/g
- Brain % dose/g ([2]; 0 min after injection): 0.142 ± 0.14 % dose/g
- Intestine % dose/g ([2]; 0 min after injection): 0.482 ± 0.02 % dose/g
- Kidney % dose/g ([2]; 0 min after injection): 3.141 ± 0.35 % dose/g
- Lung % dose/g ([2]; 0 min after injection): 2.792 ± 0.18 % dose/g
- Muscle % dose/g ([2]; 0 min after injection): 0.087 ± 0.00 % dose/g
- Stomach % dose/g ([2]; 0 min after injection): 0.522 ± 0.09 % dose/g
- Blood % dose/g ([2]; 2 min after injection): 1.254 ± 0.19 % dose/g
- Bone % dose/g ([2]; 2 min after injection): 0.214 ± 0.05 % dose/g
- Brain % dose/g ([2]; 2 min after injection): 0.073 ± 0.00 % dose/g
- Heart % dose/g ([2]; 2 min after injection): 0.73 ± 0.07 % dose/g
- Intestine % dose/g ([2]; 2 min after injection): 0.581 ± 0.06 % dose/g
- Kidney % dose/g ([2]; 2 min after injection): 5.952 ± 0.74 % dose/g
- Liver % dose/g ([2]; 2 min after injection): 4.821 ± 0.71 % dose/g
- Lung % dose/g ([2]; 2 min after injection): 2.387 ± 0.08 % dose/g
- Muscle % dose/g ([2]; 2 min after injection): 0.075 ± 0.00 % dose/g
- Spleen % dose/g ([2]; 2 min after injection): 3.587 ± 0.99 % dose/g
- Stomach % dose/g ([2]; 2 min after injection): 0.493 ± 0.02 % dose/g
- Blood % dose/g ([2]; 10 min after injection): 0.542 ± 0.02 % dose/g
- Bone % dose/g ([2]; 10 min after injection): 0.306 ± 0.07 % dose/g
- Brain % dose/g ([2]; 10 min after injection): 0.029 ± 0.00 % dose/g
- Heart % dose/g ([2]; 10 min after injection): 0.434 ± 0.05 % dose/g
- Intestine % dose/g ([2]; 10 min after injection): 0.934 ± 0.03 % dose/g
- Kidney % dose/g ([2]; 10 min after injection): 4.805 ± 0.51 % dose/g
- Liver % dose/g ([2]; 10 min after injection): 6.161 ± 0.47 % dose/g
- Lung % dose/g ([2]; 10 min after injection): 1.19 ± 0.40 % dose/g
- Muscle % dose/g ([2]; 10 min after injection): 0.069 ± 0.01 % dose/g
- Spleen % dose/g ([2]; 10 min after injection): 3.538 ± 0.70 % dose/g
- Stomach % dose/g ([2]; 10 min after injection): 0.653 ± 0.06 % dose/g
- Blood % dose/g ([2]; 30 min after injection): 0.547 ± 0.01 % dose/g
- Bone % dose/g ([2]; 30 min after injection): 0.21 ± 0.02 % dose/g
- Brain % dose/g ([2]; 30 min after injection): 0.023 ± 0.00 % dose/g
- Heart % dose/g ([2]; 30 min after injection): 0.428 ± 0.05 % dose/g
- Intestine % dose/g ([2]; 30 min after injection): 0.64 ± 0.00 % dose/g
- Kidney % dose/g ([2]; 30 min after injection): 3.25 ± 1.12 % dose/g
- Liver % dose/g ([2]; 30 min after injection): 6.199 ± 0.15 % dose/g
- Lung % dose/g ([2]; 30 min after injection): 1.05 ± 0.13 % dose/g
- Muscle % dose/g ([2]; 30 min after injection): 0.083 ± 0.03 % dose/g
- Spleen % dose/g ([2]; 30 min after injection): 2.07 ± 0.55 % dose/g
- Stomach % dose/g ([2]; 30 min after injection): 0.216 ± 0.01 % dose/g
- Blood % dose/g ([2]; 1 hr after injection): 0.261 ± 0.14 % dose/g
- Bone % dose/g ([2]; 1 hr after injection): 0.327 ± 0.02 % dose/g
- Brain % dose/g ([2]; 1 hr after injection): 0.019 ± 0.00 % dose/g
- Heart % dose/g ([2]; 1 hr after injection): 0.42 ± 0.05 % dose/g
- Intestine % dose/g ([2]; 1 hr after injection): 1.236 ± 0.03 % dose/g
- Kidney % dose/g ([2]; 1 hr after injection): 5.054 ± 0.18 % dose/g
- Liver % dose/g ([2]; 1 hr after injection): 5.128 ± 0.15 % dose/g
- Lung % dose/g ([2]; 1 hr after injection): 0.771 ± 0.09 % dose/g
- Muscle % dose/g ([2]; 1 hr after injection): 0.068 ± 0.01 % dose/g
- Spleen % dose/g ([2]; 1 hr after injection): 3.542 ± 1.23 % dose/g
- Stomach % dose/g ([2]; 1 hr after injection): 0.944 ± 0.16 % dose/g
- Blood % dose/g ([2]; 2 hr after injection): 0.145 ± 0.01 % dose/g
- Bone % dose/g ([2]; 2 hr after injection): 0.296 ± 0.01 % dose/g
- Brain % dose/g ([2]; 2 hr after injection): 0.018 ± 0.01 % dose/g
- Heart % dose/g ([2]; 2 hr after injection): 0.384 ± 0.00 % dose/g
- Intestine % dose/g ([2]; 2 hr after injection): 1.478 ± 0.09 % dose/g
- Kidney % dose/g ([2]; 2 hr after injection): 5.145 ± 0.11 % dose/g
- Liver % dose/g ([2]; 2 hr after injection): 3.05 ± 0.07 % dose/g
- Lung % dose/g ([2]; 2 hr after injection): 0.757 ± 0.05 % dose/g
- Muscle % dose/g ([2]; 2 hr after injection): 0.066 ± 0.03 % dose/g
- Spleen % dose/g ([2]; 2 hr after injection): 4.32 ± 0.19 % dose/g
- Stomach % dose/g ([2]; 2 hr after injection): 1.857 ± 0.22 % dose/g
- Blood % dose/g ([2]; 4 hr after injection): 0.125 ± 0.00 % dose/g
- Bone % dose/g ([2]; 4 hr after injection): 0.321 ± 0.01 % dose/g
- Brain % dose/g ([2]; 4 hr after injection): 0.01 ± 0.00 % dose/g
- Heart % dose/g ([2]; 4 hr after injection): 0.303 ± 0.01 % dose/g
- Intestine % dose/g ([2]; 4 hr after injection): 1.843 ± 0.02 % dose/g
- Kidney % dose/g ([2]; 4 hr after injection): 1.745 ± 0.11 % dose/g
- Liver % dose/g ([2]; 4 hr after injection): 1.538 ± 0.01 % dose/g
- Lung % dose/g ([2]; 4 hr after injection): 0.549 ± 0.03 % dose/g
- Muscle % dose/g ([2]; 4 hr after injection): 0.067 ± 0.00 % dose/g
- Spleen % dose/g ([2]; 4 hr after injection): 3.094 ± 0.50 % dose/g
- Stomach % dose/g ([2]; 4 hr after injection): 1.74 ± 0.01 % dose/g
